Results from patent US5077281A, “Novel use of taurolin” (priority 1985, dated 1991).
≈ marks a conversion by molar mass, not a printed value. Entries after “also recorded” stand apart in the source; their conditions may differ.

Columns and labels:
[1] = test system: pooled plasma of various experimental persons; experiment: Quick test on pooled plasma mixed with taurolin; assay type: biochemical, human; conditions: for Quick test (%): 30 minutes
Experimental: (§1) Therefore, in comparison with known anti-coagulants, the use of taurolin has the advantage that a sufficient blood coagulatability always still remains and, therefore, an overdosing is not possible.
(§2) Samples of, in each case, 5 ml. of a pooled plasma of various experimental persons were mixed with increasing amounts of taurolin, namely, with amounts of 0 (1), 10 (2), 20 (3), 30 (4), 40 (5) and 50 (6) mg. of taurolin/5 ml. plasma (the figures given in brackets give the sample numbers).
(§3) The Quick test and the PTT test was carried out for the samples 1 to 6 and the following results (30 minutes) obtained (Table 1): […]

coagulation factor VII = experiment: coagulation factor analysis in plasma; assay type: biochemical, human
[2] = cited from earlier work
coagulation factor X = experiment: coagulation factor analysis in plasma; assay type: biochemical, human
coagulation factor XII = target: T1, coagulation factor XII (Homo sapiens, UniProt P00748); experiment: coagulation factor analysis in plasma; assay type: biochemical
T1 construct: clotting factor activity assay
T1 sequence (P00748 20-615): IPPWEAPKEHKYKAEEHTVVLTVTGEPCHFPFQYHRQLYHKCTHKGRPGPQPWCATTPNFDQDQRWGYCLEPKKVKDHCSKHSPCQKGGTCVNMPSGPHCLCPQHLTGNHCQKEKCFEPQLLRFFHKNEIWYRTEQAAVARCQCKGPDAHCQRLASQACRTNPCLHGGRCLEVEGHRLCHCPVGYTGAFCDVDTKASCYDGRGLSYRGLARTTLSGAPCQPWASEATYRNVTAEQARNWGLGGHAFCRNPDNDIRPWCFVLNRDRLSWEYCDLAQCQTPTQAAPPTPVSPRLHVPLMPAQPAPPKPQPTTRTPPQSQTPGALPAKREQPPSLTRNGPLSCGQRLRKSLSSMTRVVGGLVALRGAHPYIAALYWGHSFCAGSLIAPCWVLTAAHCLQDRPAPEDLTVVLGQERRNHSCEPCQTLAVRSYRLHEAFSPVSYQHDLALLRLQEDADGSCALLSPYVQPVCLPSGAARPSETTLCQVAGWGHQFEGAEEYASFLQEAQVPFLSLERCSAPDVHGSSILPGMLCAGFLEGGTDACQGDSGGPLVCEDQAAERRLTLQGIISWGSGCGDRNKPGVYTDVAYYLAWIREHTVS

solubility = assay type: physicochemical; conditions: 50 mg./5 ml. blood plasma corresponds to a 1% solution; read-out: solubility limit
coagulation factor V = experiment: coagulation factor analysis in plasma; assay type: biochemical, human
antithrombin III = experiment: function of antithrombin III; assay type: biochemical
blood plasma [3] = experiment: suppression of blood coagulation on addition to blood plasma; assay type: biochemical, human; conditions: 5 ml. pooled plasma, up to max. 50 mg.
Experimental: as §1, §2

[4] = test system: blood coagula on the artificial surface; experiment: deposition of blood coagula on taurolin-contacted artificial surface in vivo; conditions: after contact of synthetic resin or metal surface with taurolin, implantation in organism with blood flow
Source text: Therefore, this coagulation action can serve for the use of the taurolin for the treatment of surfaces of medical apparatus which are temporarily introduced into the blood stream, such as e.g. vein catheters (which, untreated, tend to blockage due to blood coagula which again represents a breeding place for bacteria, whereby the danger of a sepsis is brought about). The treatment of the apparatus can be carried out e.g. with an aqueous taurolin solution, especially a 1% aqueous taurolin solution. By means of an intermittent rinsing of vascular catheters, it is, in this way e.g. possible to prevent the coagula formation on the catheter tips.

coagulation factor VIII = experiment: coagulation factor analysis in plasma; assay type: biochemical, human
blood plasma [5] = conditions: "Taurolin", Bruckner and Pfirrmann 1985; cited from earlier work
coagulation factor XI = experiment: coagulation factor analysis in plasma; assay type: biochemical, human
fresh blood = experiment: fibrin deposition on taurolin-treated cellulose acetate foils in contact with fresh blood; set-up: species or system human
coagulation factor IX = experiment: coagulation factor analysis in plasma; assay type: biochemical, human
coagulation factor II = experiment: coagulation factor analysis in plasma; assay type: biochemical, human
[6] = test system: pooled plasma of various experimental persons; experiment: PTT test on pooled plasma mixed with taurolin; assay type: biochemical, human; conditions: for PTT: 30 minutes
Experimental: as §1, §2, §3

[7] = 10 mg. taurolin/5 ml. plasma (sample 2)
[8] = 20 mg. taurolin/5 ml. plasma (sample 3)
[9] = 30 mg. taurolin/5 ml. plasma (sample 4)
[10] = 40 mg. taurolin/5 ml. plasma (sample 5)
[11] = 50 mg. taurolin/5 ml. plasma (sample 6)
[12] = maximum possible dosaging in the blood

O=S1(=O)CCN(CN2CCS(=O)(=O)NC2)CN1 [taurolin, 4,4'-Methylene-bis-(tetrahydro-2H-1,2,4-thiadiazine-1,1-dioxide)]
Quick test (%) [1, 7]: 65%
Quick test (%) [1, 8]: 53%
Quick test (%) [1, 9]: 44%
Quick test (%) [1, 10]: 39%
Quick test (%) [1, 11]: 35%
Quick value (lowest reached) [1, 12]: ≥ 20%
coagulation factor VII (coagulation factor VII; [7]): 79%
coagulation factor VII (coagulation factor VII; [8]): 74%
coagulation factor VII (coagulation factor VII; [9]): 74%
coagulation factor VII (coagulation factor VII; [10]): 77%
coagulation factor VII (coagulation factor VII; [11]): 73%
solubility in water [2]: about 1%
coagulation factor X (coagulation factor X; [7]): 75%
coagulation factor X (coagulation factor X; [8]): 65%
coagulation factor X (coagulation factor X; [9]): 56%
coagulation factor X (coagulation factor X; [10]): 53%
coagulation factor X (coagulation factor X; [11]): 50%
direct action on the Factor XII of the coagulation system (coagulation factor XII): marked direct action
activity at 2000 µg/mL (coagulation factor XII; human, 10 mg. taurolin/5 ml. plasma (sample 2)): 177%
activity at 4000 µg/mL (coagulation factor XII; human, 20 mg. taurolin/5 ml. plasma (sample 3)): 77%
activity at 6000 µg/mL (coagulation factor XII; human, 30 mg. taurolin/5 ml. plasma (sample 4)): 64%
activity at 8000 µg/mL (coagulation factor XII; human, 40 mg. taurolin/5 ml. plasma (sample 5)): 55%
activity at 10000 µg/mL (coagulation factor XII; human, 50 mg. taurolin/5 ml. plasma (sample 6)): 61%
solubility (solubility): 10 mg/mL (≈ 35.2 mM)
coagulation factor V (coagulation factor V; [7]): 121%
coagulation factor V (coagulation factor V; [8]): 110%
coagulation factor V (coagulation factor V; [9]): 92%
coagulation factor V (coagulation factor V; [10]): 81%
coagulation factor V (coagulation factor V; [11]): 79%
function of antithrombin III (antithrombin III): inhibits dependent upon concentration
suppression of blood coagulation (blood plasma [3]): not completely suppressed
deposition of blood coagula on the artificial surface in vivo [4]: continuously effectively prevents the deposition of blood coagula; also recorded: effectively continuously prevents the deposition of blood coagula
coagulation factor VIII (coagulation factor VIII; [7]): 48%
coagulation factor VIII (coagulation factor VIII; [8]): 21%
coagulation factor VIII (coagulation factor VIII; [9]): 13%
coagulation factor VIII (coagulation factor VIII; [10]): 6%
coagulation factor VIII (coagulation factor VIII; [11]): 6%
influence on blood coagulation as stated in the literature (blood plasma [5]): does not influence the blood coagulation
coagulation factor XI (coagulation factor XI; [7]): 301%
coagulation factor XI (coagulation factor XI; [8]): 197%
coagulation factor XI (coagulation factor XI; [9]): 140%
coagulation factor XI (coagulation factor XI; [10]): 83%
coagulation factor XI (coagulation factor XI; [11]): 47%
blood coagulation or fibrin deposition on the wall (fresh blood; cellulose acetate foil contacted with taurolin/blood plasma mixture (taurolin 1% in plasma), rinsed, fresh blood 30 minutes at 37° C.): no blood coagulation or fibrin deposition on the wall
fibrin fibre deposition on the surface (electron raster photographs) (fresh blood; cellulose acetate foil treated with 15 aqueous solution of taurolin 30 minutes at 37° C., then fresh blood 30 minutes at 37° C.): no fibrin fibre deposition on the surface could be ascertained
coagulation factor IX (coagulation factor IX; [7]): 153%
coagulation factor IX (coagulation factor IX; [8]): 81%
coagulation factor IX (coagulation factor IX; [9]): 63%
coagulation factor IX (coagulation factor IX; [10]): 65%
coagulation factor IX (coagulation factor IX; [11]): 68%
coagulation factor II (coagulation factor II; [7]): 96%
coagulation factor II (coagulation factor II; [8]): 87%
coagulation factor II (coagulation factor II; [9]): 90%
coagulation factor II (coagulation factor II; [10]): 75%
coagulation factor II (coagulation factor II; [11]): 74%
PTT [6, 7]: 38.0 s
PTT [6, 8]: 43.0 s
PTT [6, 9]: 48.8 s
PTT [6, 10]: 55.9 s
PTT [6, 11]: 61.8 s
PTT value (highest reached) [6, 12]: ≤ 60 s

heparin
suppression of blood coagulation (blood plasma [3]): completely suppressed
